Measured values as given in US20250270173A1, “PYRIDINE DERIVATIVES FOR TREATING PSYCHIATRIC DISORDERS” (GILGAMESH PHARMACEUTICALS, INC., priority 2022, published 2025).
Several values for one entry are separate records, joined by “and”; a condition that tells them apart may be missing. Equal entries are not always repeated.

What was measured:
5-HT2A receptor = 5-HT2A receptor (Homo sapiens (Human), UniProt P28223); experiment: FLIPR Ca2+ flux functional assay at 5-HT2A (HEK293); conditions: for 5-HT2A % Act @ Max Conc.: Ca2+ flux, HEK293, at max concentration
5-HT2B receptor = 5-HT2B receptor (Homo sapiens (Human), UniProt P41595); experiment: FLIPR Ca2+ flux functional assay at 5-HT2B (HEK293); conditions: for 5-HT2B % Act @ Max Conc.: Ca2+ flux, HEK293, at max concentration
Sequence of 5-HT2B receptor (P41595 whole entry, looked up): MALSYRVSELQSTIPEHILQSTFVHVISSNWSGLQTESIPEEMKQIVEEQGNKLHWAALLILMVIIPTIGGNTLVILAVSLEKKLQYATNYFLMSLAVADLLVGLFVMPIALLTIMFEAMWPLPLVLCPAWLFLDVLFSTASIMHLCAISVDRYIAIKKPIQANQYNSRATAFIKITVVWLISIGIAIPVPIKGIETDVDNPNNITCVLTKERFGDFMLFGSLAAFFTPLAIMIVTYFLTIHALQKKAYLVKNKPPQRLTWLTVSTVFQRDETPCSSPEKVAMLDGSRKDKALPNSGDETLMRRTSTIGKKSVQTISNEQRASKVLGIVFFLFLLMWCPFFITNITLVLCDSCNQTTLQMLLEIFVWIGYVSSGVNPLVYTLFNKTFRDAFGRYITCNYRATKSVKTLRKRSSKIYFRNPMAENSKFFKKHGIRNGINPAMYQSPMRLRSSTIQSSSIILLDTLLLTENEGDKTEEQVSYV

5-HT1A receptor = 5-HT1A receptor (Homo sapiens (Human), UniProt P08908); experiment: FLIPR Ca2+ flux functional assay at 5-HT1A (CHO cells); conditions: for 5-HT1A % Act @ Max Conc.: Ca2+ flux, CHO cells, at max concentration
human 5-HT2C receptor = human 5-HT2C receptor (Homo sapiens (Human), UniProt P28335); experiment: FLIPR Ca2+ flux functional assay at 5-HT2C (Eurofins DiscoverX); format: cell-based; conditions: Ca2+ flux, human 5-HT2C, at max concentration
Sequence of human 5-HT2C receptor (P28335 whole entry, looked up): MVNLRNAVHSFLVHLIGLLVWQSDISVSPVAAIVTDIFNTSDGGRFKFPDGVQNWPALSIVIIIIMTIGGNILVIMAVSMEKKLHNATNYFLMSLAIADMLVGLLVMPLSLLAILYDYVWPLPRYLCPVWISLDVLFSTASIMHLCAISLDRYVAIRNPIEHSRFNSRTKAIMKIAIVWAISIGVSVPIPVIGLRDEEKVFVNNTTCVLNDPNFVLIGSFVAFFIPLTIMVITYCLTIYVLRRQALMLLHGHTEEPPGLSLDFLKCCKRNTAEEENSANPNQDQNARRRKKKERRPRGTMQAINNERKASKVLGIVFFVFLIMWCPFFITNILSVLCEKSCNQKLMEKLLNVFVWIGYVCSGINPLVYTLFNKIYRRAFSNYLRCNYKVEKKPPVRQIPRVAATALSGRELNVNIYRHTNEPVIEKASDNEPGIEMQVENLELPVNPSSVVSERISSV
Protocol: Functional Assays at 5-HT2C Receptors. […] Probenecid was prepared fresh. Cells were loaded with dye prior to testing and incubated at 37° C. for 30-60 minutes. After dye loading, cells were removed from the incubator and 10 μL HBSS/20 mM Hepes was added. 3× vehicle was included in the assay buffer. Cells were incubated for 30 mins at room temperature in the dark to equilibrate plate temperature. Intermediate dilution of sample stocks was performed to generate 4× sample in assay buffer. Compound agonist activity was measured on a FLIPR Tetra (MDS). Calcium mobilization was monitored for 2 minutes and 10 μL 4× sample in HBSS/20 mM Hepes was added to the cells 5 seconds into the assay.

C57BL/6 mice = experiment: Automated (video tracking) head twitch response (HTR) assay in mice; format: in vivo; conditions: SC
Protocol: Disclosed compounds were tested for their ability to induce a head twitch response (HTR) in mice using an automated video tracking procedure, with the results summarized in Table 5. […] The phenyl Compound 44 was substantially more efficacious at inducing HTR than its pyridine counterpart Compound 29, in agreement with the generally lower maximal efficacy of the disclosed pyridine compounds for signaling through 5-HT2A receptors.
Animals. Adult male C57BL/6 mice aged 8-10 weeks (body weight 20-25 g) were used in these experiments. Animals were housed under controlled temperatures and 12-hour light/dark cycles (lights on between 07:00-19:00 h), with ad libitum food and water. The protocol was approved by the Institutional Animal Care and Use Committee at the study site. This study was carried out in strict accordance with the recommendations in the Guide for the Care and Use of Laboratory Animals of the National Institutes of Health. All efforts were made to minimize suffering.
Drugs and Drug Administration. […] was commercially obtained. Disclosed compounds were synthesized as described above. They were administered subcutaneously (SC) dissolved in saline (or saline acidified with 1-2 molar equivalents HCl to form the salt in situ for freebase compounds) at a volume of 10 mL/kg. Five doses were tested, with N=5-8 animals/group. Doses were calculated on the basis of the freebase, except for DOI, which was calculated based on the HCl salt.
Procedure. Mice were administered one dose of the drug and immediately placed into a small open field for behavioral observation. High-speed video of animals' behavior was captured continuously for 20 min. Video recordings were imported into an image processing software, which detects multiple points of interest on each animal's body, including the left and right ear. HTR events were defined as periodic deviations of ear locations from temporally averaged ear locations. Predefined thresholds for magnitude and frequency of location deviations were used to filter […] events from random head movements. The method was validated by comparing detected events with manual (human) observations and found to have an accuracy >95%. The total number of HTR events counted during the 20-min recording were determined for each animal at each dose.
Statistical Analysis. Analysis was performed using GraphPad Prism 9. Dose-response curves were fit via non-linear regression using the Gaussian 2020 function in Prism in order to determine the ED50 and Emax for each compound.

| SMILES | EC50 (5-HT2A receptor) [nM] | 5-HT2A % Act @ Max Conc. (5-HT2A receptor) | EC50 (5-HT2B receptor) [nM] | 5-HT2B % Act @ Max Conc. (5-HT2B receptor) [%] | EC50 (5-HT1A receptor) [nM] | 5-HT1A % Act @ Max Conc. (5-HT1A receptor) [%] | 5-HT2C % Act @ Max Conc. (human 5-HT2C receptor) [%] | ED50 (C57BL/6 mice; Mus musculus, 20 min, 20 min recording, read-out: ED50) [mg/kg] | Emax (HTR counts/20 min) (C57BL/6 mice) | # HTR/20 min at Most Efficacious Dose (C57BL/6 mice; at most efficacious dose) [HTR/20 min] | Most Efficacious Dose; mg/kg (C57BL/6 mice; dose giving the most HTR) |
| --- | --- | --- | --- | --- | --- | --- | --- | --- | --- | --- | --- |
| CCSc1cc(OC)c(CCN)nc1OC [Compound 22, 2-(5-(ethylthio)-3,6-dimethoxypyridin-2-yl)ethan-1-amine] | 4.09 | 94.73% | 215 | 22.75 | > 100000 | −1.51 | – | – | – | – | – |
| CCCc1cc(OC)c(CC(N)CC)cc1OC (stereo not shown) [Compound 40, reference compound] | – | 84.23% | – | −0.18 | – | 96.43 | 93.58 | – | – | – | – |
| CCCCCc1cc(OC)c(CCN)cc1OC [Compound 43, reference compound] | – | 105.2% | – | 62.2 | – | 18.9 | 85.6 | – | – | – | – |
| COc1cc(C)c(OC)nc1CC(C)N (stereo not shown) [Compound 5, 1-(3,6-dimethoxy-5-methylpyridin-2-yl)propan-2-amine] | 30 | 104.25% | 575 | 68.46 | > 100000 | 0.59 | – | – | – | – | – |
| CCC(N)Cc1cc(OC)c(C)cc1OC (stereo not shown) [Compound 39, reference compound] | – | 112.8% | – | 39.2 | – | 8.7 | 99.3 | – | – | – | – |
| COc1cc(CCN)cc(OC)c1OC [Mescaline, reference compound] | – | 102% | – | 45.4 | – | −5.03 | 91.1 | – | – | – | – |
| CCCCCCc1cc(OC)c(CCN)nc1OC [Compound 29, 2-(5-hexyl-3,6-dimethoxypyridin-2-yl)ethan-1-amine] | 34.6 | 69.91% | > 10000 | 7.78 | > 100000 | – | – | 7.46 | 22.11 | 23 | (3.2) mg/kg |
| CCC(N)Cc1nc(OC)c(Br)cc1OC (stereo not shown) [Compound 3, 1-(5-bromo-3,6-dimethoxypyridin-2-yl)butan-2-amine] | 136 | 70.17% | – | – | – | – | – | – | – | – | – |
| CCC(N)Cc1nc(OC)c(C)cc1OC (stereo not shown) [Compound 2, 1-(3,6-dimethoxy-5-methylpyridin-2-yl)butan-2-amine] | 847 | 69.78% | – | – | – | – | – | – | – | – | – |
| CCCc1cc(OC)c(CC(N)CC)nc1OC (stereo not shown) [Compound 37, 1-(3,6-dimethoxy-5-propylpyridin-2-yl)butan-2-amine] | 128 | 49.58% | > 10000 | 12.18 | > 100000 | 42.24 | – | – | – | – | – |
| CCCCCCc1cc(OC)c(CC(C)N)cc1OC (stereo not shown) [Compound 42, reference compound] | – | 119.7% | – | 39.8 | – | 30.4 | 99.8 | – | – | – | – |
| COc1cc(C)c(OC)nc1CCN [Compound 8, 2-(3,6-dimethoxy-5-methylpyridin-2-yl)ethan-1-amine] | 65.8 | 85.81% | 1010 | 36.99 | > 100000 | −0.62 | – | – | – | – | – |
| CCC(N)Cc1nc(OC)c(C2CC2)cc1OC (stereo not shown) [Compound 28, 1-(5-cyclopropyl-3,6-dimethoxypyridin-2-yl)butan-2-amine] | 161 | 71.49% | – | – | – | – | – | – | – | – | – |
| CCCCCc1nc(OC)c(CC(N)CC)cc1OC (stereo not shown) [Compound 11, 1-(2,5-dimethoxy-6-pentylpyridin-3-yl)butan-2-amine] | 356 | 62.2% | – | 6.92 | 19200 | 197 | – | – | – | – | – |
| CCCCCc1nc(OC)c(CC(N)CC)nc1OC (stereo not shown) [Compound 12, 1-(3,6-dimethoxy-5-pentylpyrazin-2-yl)butan-2-amine] | > 3160 | 37.1% | – | 7.05 | 33300 | 170 | – | – | – | – | – |
| CCCCCc1cc(OC)c(CC(N)CC)cc1OC (stereo not shown) [Compound 10, 1-(2,5-dimethoxy-4-pentylphenyl)butan-2-amine] | – | 72% and 71.5% | – | 0.211 | – | 33.1 | 115 | – | – | – | – |
| COc1cc(Br)c(OC)nc1CC(C)N (stereo not shown) [Compound 6, 1-(5-bromo-3,6-dimethoxypyridin-2-yl)propan-2-amine] | 2.13 | 95.6% | 170 | 70.54 | > 100000 | 1.66 | – | – | – | – | – |
| COc1cc(C2CC2)c(OC)nc1CCN [Compound 26, 2-(5-cyclopropyl-3,6-dimethoxypyridin-2-yl)ethan-1-amine] | 27 | 81.58% | > 10000 | 5.16 | > 100000 | 2.22 | – | – | – | – | – |
| CCCCCc1cc(OC)c(CC(C)N)cc1OC (stereo not shown) [Compound 41, reference compound] | – | 100.2% | – | 20.0 | – | 15.0 | 90.1 | – | – | – | – |
| CCSc1cc(OC)c(CC(C)N)nc1OC (stereo not shown) [Compound 23, 1-(5-(ethylthio)-3,6-dimethoxypyridin-2-yl)propan-2-amine] | 3.03 | 106.2% | 44.5 | 67.46 | > 100000 | 3.21 | – | – | – | – | – |
| CCSc1cc(OC)c(CC(N)CC)nc1OC (stereo not shown) [Compound 24, 1-(5-(ethylthio)-3,6-dimethoxypyridin-2-yl)butan-2-amine] | 74.6 | 77.03% | > 10000 | 14.99 | > 100000 | 2.99 | – | – | – | – | – |
| CCc1cc(OC)c(CC(N)CC)nc1OC (stereo not shown) [Compound 21, 1-(5-ethyl-3,6-dimethoxypyridin-2-yl)butan-2-amine] | 170 | 73.61% | – | – | – | – | – | – | – | – | – |
